Laboratory results published in patent US5789383A, “Bradykinin antagonists for the prophylaxis or treatment of virus diseases” (Hoechst Aktiengesellschaft, priority 1993, dated 1998).

System: HSV-1
Test: HOE 140 in combination with acyclovir on HSV-1 skin lesions in hairless mice, Experiment 24/94
Assay type: in vivo
Conditions: acyclovir 0.05% orally day 3-7, no HOE 140
Method: Investigation of the Action of HOE 140 on Skin Lesions Caused by HSV-1 in Hairless Mice in Combination with Acyclovir
HOE 140 was administered twice daily either topically as a 2% strength cream in a neutral base or subcutaneously with 2 mg/kg per dosage. Acyclovir was administered as a 0.05% strength solution in the drinking water.
Administration of acyclovir day 3-7
Administration of HOE 140 day 3-7 or 0-7

SMILES: Nc1nc2c(ncn2COCCO)c(=O)[nH]1 [Acyclovir, acyclovir]
- Average survival time: 7.3 ± 1.2 days
- Survivors/group size (chi^2 test not significant): 2/8
- Animals with zoster formation (group size 8): 7
